From patent US8524750B2, “(Pyrazol-3-yl)-1,3,4-thiadiazol-2-amine and (pyrazol-3-yl)-1,3,4-thiazol-2-amine compounds” (Glaxo Group Limited, priority 2009, dated 2013) come the findings set out here.

Experiment [1] has as its system Mycobacterium tuberculosis H37Rv. As to the kind of experiment: Mycobacterium tuberculosis H37Rv Inhibition Assay (Whole Cell Assay). The settings on record: ATCC 25618 / H37Rv, H37Rv strain (ATCC25618), Middlebrook 7H9, six days at 37° C., resazurin fluorescence after 48 hours. The format is cell-based. A general note: Resazurin is reduced to fluorescent resorufin, in cell work by metabolically active cells.

For experiment [2], the target named is T1, Mycobacterium tuberculosis InhA (Mycobacterium tuberculosis, UniProt P9WGR1).
T1 construct: made in house; host or cells: E. coli
T1 sequence (P9WGR1 whole entry, looked up): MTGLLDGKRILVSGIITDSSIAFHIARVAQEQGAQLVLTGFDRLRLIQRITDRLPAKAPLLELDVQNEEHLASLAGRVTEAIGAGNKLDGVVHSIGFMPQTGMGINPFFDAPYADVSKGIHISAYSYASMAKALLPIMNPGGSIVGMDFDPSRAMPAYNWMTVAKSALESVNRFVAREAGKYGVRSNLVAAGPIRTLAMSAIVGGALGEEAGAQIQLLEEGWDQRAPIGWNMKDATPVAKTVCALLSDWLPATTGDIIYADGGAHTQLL
As to the kind of experiment: Mycobacterium tuberculosis InhA Inhibition Assay (Enzyme Assay). It counts as biochemical. The settings on record: 5 nM InhA, 50 μM DDCoA, 50 μM NADH, PIPES buffer pH 6.8, initial velocities of NADH consumption. As to the method:
Mycobacterium tuberculosis InhA Inhibition Assay (Enzyme Assay)
InhA is able to reduce 2-trans enoyl-CoA esters with concomitant oxidation of NADH to NAD^+. The assay format is based on the kinetic detection of NADH consumption.
Assay for InhA inhibition is carried out with mycobacterium recombinant protein expressed and purified form E. coli. Standard assay conditions for the determination of kinetic constants and inhibitors activity use 5 nM of InhA, 50 μM of Dodecenoyl-CoA synthesized and purified as described by Quernard et al (DDCoA) and 50 μM of NADH as substrates, and it is carried out in 30 mM PIPES buffer pH 6.8, containing 0.05% of BSA. […] Triclosan is used as positive control in every experiment. One μl of compounds is added to the wells containing 25 μl of the DDCoA+NADH mix, the reaction is started by adding 50 μl of the enzyme solution. Fluorescence from NADH is followed at room temperature during 20 minutes in a fluorescent plate reader (excitation at 340 nm; emission at 480 nm). IC50 values are determined using initial velocities of NADH consumption.
Quernard A, Sacchettini J C, Dessen A, et al. Enzymatic characterization of the target for isoniazid in Mycobacterium tuberculosis. Biochemistry 1995; 34:8235-41.

≈ marks a conversion by molar mass, not a printed value. Where two headings read alike, the source gives them in different places.

For the compound `Cc1cc(C(F)F)nn1C(C)c1nnc(Nc2ccn(Cc3ccccc3)n2)s1` (stereo not shown) [Example 43, 5-{1-[3-(difluoromethyl)-5-methyl-1H-pyrazol-1-yl]ethyl}-N-[1-(phenylmethyl)-1H-pyrazol-3-yl]-1,3,4-thiadiazol-2-amine], the MIC (in general, the least concentration at which growth counts as inhibited) in experiment [1] lay within 4 to 10 µM (≈ 1.66 to 4.15 µg/mL). In addition, the IC50 (commonly the concentration needed to halve the response being measured) in experiment [2] (read-out: IC50 value) was under 120 nM.
`Cc1ccn(C(C)c2nnc(Nc3ccn(Cc4ccccc4)n3)s2)n1` (stereo not shown) [Example 44, 5-[1-(3-methyl-1H-pyrazol-1-yl)ethyl]-N-[1-(phenylmethyl)-1H-pyrazol-3-yl]-1,3,4-thiadiazol-2-amine] gave an MIC in experiment [1] of 1 to 4 µM (≈ 0.365 to 1.46 µg/mL). The IC50 in experiment [2] (IC50 value) is 137 to 274 nM.
Turning to `Cc1cc(C(F)F)nn1Cc1nnc(Nc2ccn(Cc3ccccc3)n2)s1` [Example 45, 5-{[3-(difluoromethyl)-5-methyl-1H-pyrazol-1-yl]methyl}-N-[1-(phenylmethyl)-1H-pyrazol-3-yl]-1,3,4-thiadiazol-2-amine], the MIC in experiment [1] was over 10 µM. Besides, the IC50 in experiment [2] (IC50 value) was in the range of 125 to 249 nM.
Taken in the same sequence, the figures for `Cc1cc(C(F)F)nn1Cc1nnc(Nc2ccn(Cc3ccccc3Cl)n2)s1` [Example 46, N-{1-[(2-chlorophenyl)methyl]-1H-pyrazol-3-yl}-5-{[3-(difluoromethyl)-5-methyl-1H-pyrazol-1-yl]methyl}-1,3,4-thiadiazol-2-amine] were over 10 µM and under 115 nM.
On to `O=[N+]([O-])c1ccn(Cc2nnc(Nc3ccn(Cc4c(Cl)cccc4Cl)n3)s2)n1` [Example 47, N-{1-[(2,6-dichlorophenyl)methyl]-1H-pyrazol-3-yl}-5-[(3-nitro-1H-pyrazol-1-yl)methyl]-1,3,4-thiadiazol-2-amine], for which the minimal inhibitory concentration (MIC) in experiment [1] is over 10 µM. Moreover, in experiment [2] (IC50 value), the IC50 is under 111 nM.
In experiment [1], `Cc1cc(C(F)(F)F)nn1Cc1nnc(Nc2ccn(Cc3ccccc3Cl)n2)s1` [Example 48, N-{1-[(2-chlorophenyl)methyl]-1H-pyrazol-3-yl}-5-{[5-methyl-3-(trifluoromethyl)-1H-pyrazol-1-yl]methyl}-1,3,4-thiadiazol-2-amine] yielded an MIC of over 10 µM. Also, in experiment [2] (IC50 value), the IC50 fell in the range of 110 to 220 nM.
In experiment [1], `O=[N+]([O-])c1ccn(Cc2nnc(Nc3ccn(Cc4ccccc4Cl)n3)s2)n1` [Example 49, N-{1-[(2-chlorophenyl)methyl]-1H-pyrazol-3-yl}-5-[(3-nitro-1H-pyrazol-1-yl)methyl]-1,3,4-thiadiazol-2-amine] yielded an MIC of over 10 µM. Moreover, the IC50 in experiment [2] (read-out: IC50 value) is under 120 nM.
`Cc1cc([N+](=O)[O-])nn1Cc1nnc(Nc2ccn(Cc3c(F)cccc3Cl)n2)s1` [Example 50, N-{1-[(2-chloro-6-fluorophenyl)methyl]-1H-pyrazol-3-yl}-5-[(5-methyl-3-nitro-1H-pyrazol-1-yl)methyl]-1,3,4-thiadiazol-2-amine] returned an MIC in experiment [1] of over 10 µM. In addition, in experiment [2] (read-out: IC50 value), the half-inhibitory concentration (IC50) is under 111 nM.
Taken in the same sequence, the figures for `Cc1cc(C)n(Cc2nnc(Nc3ccn(Cc4c(F)cccc4Cl)n3)s2)n1` [Example 51, N-{1-[(2-chloro-6-fluorophenyl)methyl]-1H-pyrazol-3-yl}-5-[(3,5-dimethyl-1H-pyrazol-1-yl)methyl]-1,3,4-thiadiazol-2-amine] were over 10 µM and under 120 nM.
In experiment [1], `O=[N+]([O-])c1ccn(Cc2nnc(Nc3ccn(Cc4c(F)cccc4Cl)n3)s2)n1` [Example 52, N-{1-[(2-chloro-6-fluorophenyl)methyl]-1H-pyrazol-3-yl}-5-[(3-nitro-1H-pyrazol-1-yl)methyl]-1,3,4-thiadiazol-2-amine] came in with an MIC of over 10 µM. The IC50 in experiment [2] (IC50 value) fell in the range of 115 to 230 nM.
`Cc1cc(C)n(Cc2nnc(Nc3ccn(Cc4c(Cl)cccc4Cl)n3)s2)n1` [Example 53, N-{1-[(2,6-dichlorophenyl)methyl]-1H-pyrazol-3-yl}-5-[(3,5-dimethyl-1H-pyrazol-1-yl)methyl]-1,3,4-thiadiazol-2-amine] registered an MIC in experiment [1] of over 10 µM. For the same compound, the IC50 in experiment [2] (read-out: IC50 value) was under 115 nM.
Compound `Cc1ccn(C(C)c2nnc(Nc3ccn(Cc4c(Cl)cccc4Cl)n3)s2)n1` (stereo not shown) [Example 54, N-{1-[(2,6-dichlorophenyl)methyl]-1H-pyrazol-3-yl}-5-[1-(3-methyl-1H-pyrazol-1-yl)ethyl]-1,3,4-thiadiazol-2-amine] gave an MIC in experiment [1] of 1 to 4 µM (≈ 0.434 to 1.74 µg/mL). Further, the IC50 in experiment [2] (read-out: IC50 value) was under 115 nM.
With `Cc1cc(C(F)F)nn1Cc1nnc(Nc2ccn(Cc3c(F)cccc3Cl)n2)s1` [Example 55, N-{1-[(2-chloro-6-fluorophenyl)methyl]-1H-pyrazol-3-yl}-5-([3-(difluoromethyl)-5-methyl-I H-pyrazol-1-yl]methyl}-1,3,4-thiadiazol-2-amine], the MIC in experiment [1] was over 10 µM. For the same compound, the IC50 in experiment [2] (read-out: IC50 value) was under 110 nM.
The like results for `Cc1cc(C)n(Cc2nnc(Nc3ccn(Cc4ccccc4Cl)n3)s2)n1` [Example 56, N-{1-[(2-chlorophenyl)methyl]-1H-pyrazol-3-yl}-5-[(3,5-dimethyl-1H-pyrazol-1-yl)methyl]-1,3,4-thiadiazol-2-amine] were, in that order, over 10 µM and under 125 nM.
The like results for `Cc1ccn(Cc2nnc(Nc3ccn(Cc4c(Cl)cccc4Cl)n3)s2)n1` [Example 57, N-{1-[(2,6-dichlorophenyl)methyl]-1H-pyrazol-3-yl}-5-[(3-methyl-1H-pyrazol-1-yl)methyl]-1,3,4-thiadiazol-2-amine] were, in that order, over 10 µM and under 119 nM.
Turning to `Cc1cc([N+](=O)[O-])nn1Cc1nnc(Nc2ccn(Cc3ccccc3Cl)n2)s1` [Example 58, N-{1-[(2-chlorophenyl)methyl]-1H-pyrazol-3-yl}-5-[(5-methyl-3-nitro-1H-pyrazol-1-yl)methyl]-1,3,4-thiadiazol-2-amine], the MIC in experiment [1] is over 10 µM. In experiment [2] (read-out: IC50 value), the IC50 fell in the range of 232 to 1160 nM.
The like results for `FC(F)(F)c1ccn(Cc2nnc(Nc3ccn(Cc4ccccc4Cl)n3)s2)n1` [Example 59, N-{1-[(2-chlorophenyl)methyl]-1H-pyrazol-3-yl}-5-{[3-(trifluoromethyl)-1H-pyrazol-1-yl]methyl}-1,3,4-thiadiazol-2-amine] were, in that order, over 10 µM and 227 to 1140 nM.
Regarding `Cc1ccn(Cc2nnc(Nc3ccn(Cc4ccccc4)n3)s2)n1` [Example 60, 5-[(3-methyl-1H-pyrazol-1-yl)methyl]-N-[1-(phenylmethyl)-1H-pyrazol-3-yl]-1,3,4-thiadiazol-2-amine], the MIC in experiment [1] is over 10 µM. For the same compound, the IC50 in experiment [2] (read-out: IC50 value) was in the range of 285 to 1420 nM.
Consider `FC(F)(F)c1ccn(Cc2nnc(Nc3ccn(Cc4ccccc4)n3)s2)n1` [Example 61, N-[1-(phenylmethyl)-1H-pyrazol-3-yl]-5-{[3-(trifluoromethyl)-1H-pyrazol-1-yl]methyl}-1,3,4-thiadiazol-2-amine], for which the MIC in experiment [1] is over 10 µM. Also, the IC50 in experiment [2] (read-out: IC50 value) fell in the range of 247 to 1230 nM.
`Cc1cc([N+](=O)[O-])nn1Cc1nnc(Nc2ccn(Cc3ccccc3)n2)s1` [Example 62, 5-[(5-methyl-3-nitro-1H-pyrazol-1-yl)methyl]-N-[1-(phenylmethyl)-1H-pyrazol-3-yl]-1,3,4-thiadiazol-2-amine] registered an MIC in experiment [1] of over 10 µM. For the same compound, the IC50 in experiment [2] (read-out: IC50 value) fell in the range of 252 to 1260 nM.
Taken in the same sequence, the figures for `Fc1cccc(Cl)c1Cn1ccc(Nc2nnc(Cn3ccc(C(F)(F)F)n3)s2)n1` [Example 63, N-{1-[(2-chloro-6-fluorophenyl)methyl]-1H-pyrazol-3-yl}-5-{[3-(trifluoromethyl)-1H-pyrazol-1-yl]methyl}-1,3,4-thiadiazol-2-amine] were over 10 µM and 218 to 1090 nM.
In the case of `Cc1cc(C)n(Cc2nnc(Nc3ccn(Cc4ccccc4)n3)s2)n1` [Example 64, 5-[(3,5-dimethyl-1H-pyrazol-1-yl)methyl]-N-[1-(phenylmethyl)-1H-pyrazol-3-yl]-1,3,4-thiadiazol-2-amine], the MIC in experiment [1] is over 10 µM. Also, the IC50 in experiment [2] (read-out: IC50 value) is 274 to 1370 nM.
`COC(C)(c1nc(C)cs1)c1nnc(Nc2ccn(Cc3c(F)cccc3Cl)n2)s1` (stereo not shown) [Example 72, N-{1-[(2-chloro-6-fluorophenyl)methyl]-1H-pyrazol-3-yl}-5-[1-(methyloxy)-1-(4-methyl-1,3-thiazol-2-yl)ethyl]-1,3,4-thiadiazol-2-amine]: the MIC in experiment [1] fell in the range of 1 to 4 µM (≈ 0.465 to 1.86 µg/mL). Moreover, the IC50 in experiment [2] (read-out: IC50 value) is under 108 nM.
Regarding `COC(c1nc(C)cs1)c1nnc(Nc2ccn(Cc3c(F)cccc3F)n2)s1` (stereo not shown) [Example 73, N-{1-[(2,6-difluorophenyl)methyl]-1H-pyrazol-3-yl}-5-[(methyloxy)(4-methyl-1,3-thiazol-2-yl)methyl]-1,3,4-thiadiazol-2-amine], in experiment [1], the MIC is over 10 µM. Besides, the IC50 in experiment [2] (IC50 value) was 115 to 230 nM.
`Cc1csc(C(C)(C)c2nnc(Nc3ccn(Cc4c(F)cccc4Cl)n3)s2)n1` [Example 74, N-{1-[(2-chloro-6-fluorophenyl)methyl]-1H-pyrazol-3-yl}-5-[1-methyl-1-(4-methyl-1,3-thiazol-2-yl)ethyl]-1,3,4-thiadiazol-2-amine] came in with an MIC in experiment [1] of 1 to 4 µM (≈ 0.449 to 1.8 µg/mL). The compound further showed an IC50 in experiment [2] (IC50 value) of under 111 nM.
Turning to `Cc1cc(C)n(C(C)c2nnc(Nc3ccn(Cc4ccc(F)cc4)n3)s2)n1` (stereo not shown) [Example 75, 5-[1-(3,5-dimethyl-1H-pyrazol-1-yl)ethyl]-N-{1-[(4-fluorophenyl)methyl]-1H-pyrazol-3-yl}-1,3,4-thiadiazol-2-amine], the MIC in experiment [1] is over 10 µM. The half-inhibitory concentration (IC50) in experiment [2] (IC50 value) is 126 to 252 nM.
